Results on two compounds are retold here after patent US12263176B2, “Pharmaceutical liquid compositions of meloxicam” (SLAYBACK PHARMA LLC, priority 2020, dated 2025).

For data set [1] the following is noted: following oral administration; cited from earlier work.
For data set [2] the following is noted: cited from earlier work.
In data set [3] the test system is acute post-operative pain (Brennan) model in Sprague Dawley rats. As to the kind of experiment: Acute post-operative pain (Brennan) model, paw withdrawal latency / mechanical hyperalgesia. The conditions noted are these: 3 mg/kg IV. The format is in vivo. The procedure: Animal Study: Evaluation of Efficacy of Meloxicam Compositions in Acute Post-operative Pain (Brennan) Model in Sprague Dawley Rats.
The analgesic efficacy of Composition K was studied in comparison with Anjeso® and ketorolac tromethamine drug products in a rat acute post-operative pain model at a dose of 3 mg/kg administered by intravenous route.
Meloxicam compositions (Anjeso® & Composition K) & ketorolac drug products were tested in an acute post-operative (Brennan) pain model in rats after intravenous administration. Average paw withdrawal latency & mechanical hyperalgesia (pain assessment) parameters were assessed in rats after intravenous administration of vehicle (0.9% saline), ketorolac tromethamine (3 mg/kg), Anjeso® (3 mg/kg), Composition K (3 mg/kg). Evaluations began 30 minutes following surgery, and were continued for 240 minutes.
Mean paw withdrawal latency was between 8.6 to 8.9 across all the treatment groups. […] Average paw withdrawal latency in normal animals is 9.7 seconds whereas as it was 3.5 seconds in operated animals.

Turning to `Cc1cnc(NC(=O)C2=C(O)c3ccccc3S(=O)(=O)N2C)s1` [Meloxicam, 4-hydroxy-2-methyl-N-(5-methyl-2-thiazolyl)-2H-1,2-benzothiazine-3-carbox-amide-1,1-dioxide], the “time of maximum observed plasma concentration (Tmax)” value in data set [1] was 5 to 6 h. The solubility in methanol entry in data set [2] (methanol) was “very slightly soluble”. Further, the solubility in water result in data set [2] (water) is reported as “practically insoluble”.

Take `O=C(c1ccccc1)c1ccc2n1CCC2C(=O)O` (centres unmarked) [ketorolac tromethamine]: the “increased average paw withdrawal latency compared with vehicle (0.9% saline)” value in data set [3] is reported as 68%. Also, the “effect on development of mechanical allodynia” value in data set [3] (from 45 minutes till 240 minutes of recording, statistically significant at 45, 90 and 120 minutes) is “significantly prevented the development of mechanical allodynia”.
